Data reported in patent US8455525B2, “Selective androgen receptor modulators” (Radius Health, Inc., priority 2008, dated 2013).

Key:
androgen receptor (AR) = biological target: T1, androgen receptor (AR) (Rattus norvegicus, UniProt P15207); assay: androgen receptor binding assay (fluorescence polarization, Fluormone AL Green competition)
T1 construct: purchased Invitrogen, Madison, Wis
T1 sequence (P15207 651-902 limits assumed): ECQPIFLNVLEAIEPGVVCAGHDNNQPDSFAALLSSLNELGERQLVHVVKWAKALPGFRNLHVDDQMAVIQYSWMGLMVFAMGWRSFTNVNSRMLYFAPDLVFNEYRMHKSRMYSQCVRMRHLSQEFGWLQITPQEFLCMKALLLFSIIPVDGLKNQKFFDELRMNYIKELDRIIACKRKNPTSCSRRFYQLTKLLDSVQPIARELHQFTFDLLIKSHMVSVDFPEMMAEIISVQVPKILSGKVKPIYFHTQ
Description: The assay was performed as specified by the manufacturer (Invitrogen, Madison, Wis.). Briefly, 1 μl of 10 mM compound was added to 500 μl of AR screening buffer in a 1.5 ml eppendorf tube to make a 2×10^−5M stock. 10-fold serial dilutions of the test compounds were prepared ranging in concentration from 10^−5M to 10^−12M. Each dilution was added in triplicate to a black 384-microtiter plate. The test compounds will be diluted 2-fold in the final reaction. 2×AR-Fluormone™ complex was prepared with 2 nM Flourmone AL Green™ and 30 nM AR. 25 μl of 2× complex was aliquoted to each reaction well, such that the final reaction volume was 50 μl per well. Plate was sealed with a foil cover and incubated in the dark at room temperature for 4 h. Polarization values for each well were measured. The polarization values were plotted against the concentration of the test compound. […] As a control, a competition curve for R1881 (methyltrienolone) was performed for each assay. Curve Fitting was performed using GraphPad Prism® software from GraphPad™ Software Inc. Binding data are reported as a single determination if the experiment was run once only and as the average of experiments if the binding experiment was performed two or more times with that compound.
Where multiple data points have been taken, the value reported is the average of the multiple determinations.

[1] = test system: young, orchidectomized rats; assay: Rat Herschberger assay: organ weights of orchidectomized rats relative to sham; type: in vivo, rat (Sprague Dawley); details: 10 mg/kg (po), once daily for 4 days
Source text: The following is a typical procedure of the in vivo evaluation of the selective androgens of this invention. In particular, this assay looks primarily at the ability of the selective androgens of this invention to increase muscle size in an immature, castrated rat. In addition, androgenic effects are looked at primarily by weighing the prostate and seminal vesicles. Selective compounds will show a greater increase in the levator ani relative to the prostate and seminal vesicles when compared to testosterone treated, castrated animals or to intact animals that have not been treated. Immature Sprague Dawley male rats were obtained Charles River Laboratories (Stoneridge, N.Y.). All animals were maintained in a temperature and humidity controlled room with a 12 hr light: 12 hr dark cycle, with ad lib access to food (TD 291615, Teklad, Madison, Wis.) and water. Rats were anesthetized and orchidectomized (GDX) or sham surgery (SHAM) was performed. After a 7-day recovery period, the animals were randomized according to weight and assigned to treatment groups (n=5), SHAM, OVX+ vehicle, OVX+Cpd treated. Testosterone propionate (TP 1 mg/kg in 5% DMSO/95% corn oil) was administered by once daily subcutaneous injections, while the compounds of the invention are dosed in vehicle (typically 20% cyclodextrin or 0.5% carboxymethylcellulose) was administered by once daily oral gavage. The rats were then dosed once daily for 4 days. All animals were euthanized via carbon dioxide inhalation 24 hs after the last dose. The prostate, seminal vesicle and levator ani and bulba cavernous (LABC) tissues were removed, weighed and recorded. Body weights were recorded for each animal at baseline and at sacrifice.
Prostate, seminal vesicle and levator ani bulbus cavernosus (LABC) are all represented as % relative to sham. After sacrifice, organ weights of young, orchidectomized rats treated with compound for 4 days are compared to sham operated animals.

SMILES	IC50 (androgen receptor (AR))	LABC (levator ani bulbus cavernosus) weight, % relative to sham [1]	Prostate weight, % relative to sham [1]	Seminal vesicle weight, % relative to sham [1]
Cc1c(N[C@@H](c2nnc(-c3ccccc3)o2)[C@@H](C)O)ccc(C#N)c1Cl [Example 3, 2-chloro-4-((1R,2R)-2-hydroxy-1-(5-phenyl-1,3,4-oxadiazol-2-yl)propylamino)-3-methylbenzonitrile]	6 nM	99%	43%	37%
Cc1c(N[C@@H](c2nnc(-c3ccc(C#N)cc3)o2)[C@@H](C)O)ccc(C#N)c1Cl [Example 23, 2-chloro-4-((1R,2R)-1-(5-(4-cyanophenyl)-1,3,4-oxadiazol-2-yl)-2-hydroxypropylamino)-3-methylbenzonitrile]	0.7 nM			
Cc1c(N[C@@H](c2nnc(-c3ccc(F)cc3)o2)[C@@H](C)O)ccc(C#N)c1Cl [Example 19, 2-chloro-4-((1R,2R)-1-(5-(4-fluorophenyl)-1,3,4-oxadiazol-2-yl)-2-hydroxypropylamino)-3-methylbenzonitrile]	19 nM			
CC(=O)Nc1ccc(-c2nnc([C@H](Nc3ccc(C#N)c(Cl)c3C)[C@H](C)O)o2)cc1 [Example 78, N-(4-(5-((1R,2S)-1-(3-Chloro-4-cyano-2-methylphenylamino)-2-hydroxypropyl)-1,3,4-oxadiazol-2-yl)phenyl)acetamide]	1 nM			
Cc1c(N[C@@H](c2nnc(-c3ccc(C#N)cc3)o2)[C@H](C)O)ccc(C#N)c1C(F)(F)F [Example 42, 4-((1R,2S)-1-(5-(4-Cyanophenyl)-1,3,4-oxadiazol-2-yl)-2-hydroxypropylamino)-3-methyl-2-(trifluoromethyl)benzonitrile]	9 nM			
Cc1c(N[C@@H](c2nnc(-c3cccc(O)c3)o2)[C@@H](C)O)ccc(C#N)c1Cl [Example 9, 2-chloro-4-((1R,2R)-2-hydroxy-1-(5-(3-hydroxyphenyl)-1,3,4-oxadiazol-2-yl)propylamino)-3-methylbenzonitrile]	10 nM			
Cc1c(N[C@@H](c2nnc(-c3ccc(F)c(O)c3)o2)[C@H](C)O)ccc(C#N)c1Cl [Example 40, 2-Chloro-4-((1R,2S)-1-(5-(4-fluoro-3-hydroxyphenyl)-1,3,4-oxadiazol-2-yl)-2-hydroxypropylamino)-3-methylbenzonitrile]	0.2 nM			
Cc1c(N[C@@H](c2nnc(-c3ccc(NC(=O)c4ccccc4)cc3)o2)[C@@H](C)O)ccc(C#N)c1Cl [Example 69, N-(4-(5-((1R,2R)-1-(3-Chloro-4-cyano-2-methylphenylamino)-2-hydroxypropyl)-1,3,4-oxadiazol-2-yl)phenyl)benzamide]	> 1000 nM			
Cc1c(N[C@@H](c2nnc(-c3ccc(S(C)(=O)=O)cc3)o2)[C@@H](C)O)ccc(C#N)c1Cl [Example 25, 2-chloro-4-((1R,2R)-2-hydroxy-1-(5-(4-(methylsulfonyl)phenyl)-1,3,4-oxadiazol-2-yl)propylamino)-3-methylbenzonitrile]	258 nM			
Cc1c(N[C@@H](c2nnc(-c3ccc(Cl)c(Cl)c3)o2)[C@H](C)O)ccc(C#N)c1Cl [Example 55, 2-Chloro-4-((1R,2S)-1-(5-(3,4-dichlorophenyl)-1,3,4-oxadiazol-2-yl)-2-hydroxypropylamino)-3-methylbenzonitrile]	11 nM			
Cc1c(N[C@@H](c2nnc(-c3ccccc3)o2)[C@H](C)O)ccc(C#N)c1Cl [Example 1, 2-chloro-4-((1R,2S)-2-hydroxy-1-(5-phenyl-1,3,4-oxadiazol-2-yl)propylamino)-3-methylbenzonitrile]	3 nM	85%	46%	69%
Cc1c(N[C@@H](c2nc(-c3ccccc3)no2)[C@@H](C)O)ccc(C#N)c1Cl [Example 18, 2-chloro-4-((1R,2R)-2-hydroxy-1-(3-phenyl-1,2,4-oxadiazol-5-yl)propylamino)-3-methylbenzonitrile]	60 nM			
Cc1c(N[C@@H](c2nnc(-c3ccc(F)cc3)o2)[C@H](C)O)ccc(C#N)c1Cl [Example 5, 2-Chloro-4-((1R,2S)-1-(5-(4-fluorophenyl)-1,3,4-oxadiazol-2-yl)-2-hydroxypropylamino)-3-methylbenzonitrile]	50 nM			
Cc1c(N[C@H](CO)c2nnc(-c3ccccc3)o2)ccc(C#N)c1Cl [Example 17, (R)-2-chloro-4-(2-hydroxy-1-(5-phenyl-1,3,4-oxadiazol-2-yl)ethylamino)-3-methylbenzonitrile]	10 nM			
